Experimental data taken from patent US20150010928A1, “MEANS AND METHODS FOR ASSESSING AN ENDOCRINE DISEASE OR DISORDER” (priority 2012, published 2015).
Marks after values point to notes of the source that are not given here.

Test system: female rats
Assay: Plasma metabolite profiling (GC-MS, LC-MS, SPE-LC-MS) in female rats dosed once daily over 28 days (OECD 407)
Format: in vivo, rat
Settings: high dose
Summary of the method: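 Metabolites were measured by GC-MS (derivatised) and reversed-phase LC-MS, with steroids by online SPE-LC-MS, in plasma drawn from fasted rats on days 7, 14 and 28 of once-daily dosing (5/sex/group). Values are ratios versus sex-matched untreated controls, normalized to pool samples, with Welch-test p-values.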

In the case of C[C@]12CCC(=O)C=C1CC[C@@H]1[C@@H]2CC[C@@]2(C)[C@H]1CC[C@]2(C)O [17-alpha-Methyltestosterone], the 3-Hydroxybutyrate (f7, female rats, Table 15a) is reported as 1.5*, the “DAG (C18:1,C18:2)” value (f7, female rats, Table 15a) is reported as 3.01 * and the Glutamate (f7, female rats, Table 15a) is reported as 1.56 *. For the same compound, the Glycine (f7, female rats, Table 15a) was 1.28 *, the “Phosphatidylcholine (C16:0,C20:5)” value (f7, female rats, Table 15a) was 1.22 * and the “TAG (C16:0,C16:1)” value (f7, female rats, Table 15a) was 3.85 *. The “TAG (C16:0,C18:1,C18:3)” value (f7, female rats, Table 15a) was 8.68 *, the “TAG (C16:0,C18:2)” value (f7, female rats, Table 15a) was 4.63 * and the “TAG (C18:1,C18:2)” value (f7, female rats, Table 15a) was 5.83 *. For the same compound, the “TAG (C18:2,C18:2)” value (f7, female rats, Table 15a) was 4.67 *, the “TAG (C18:3, C18:2, C18:1)” value (f7, female rats, Table 15a) was 6.36* and the “TAG (DAG-Fragment)” value (f7, female rats, Table 15a) was 5.82 *. For the same compound, the “TAG No 059” value (f7, female rats, Table 15a) was 3.27 *, the Threonic acid (f7, female rats, Table 15a) was 1.65 * and the trans-4-Hydroxyproline (f7, female rats, Table 15a) was 1.4 *. For the same compound, the Arginine (f7, female rats, Table 15b) was 0.69 *, the Campesterol (f7, female rats, Table 15b) was 0.65 * and the “Ceramide (d18:1,C24:0)” value (f7, female rats, Table 15b) was 0.79 *. The Lactate (f7, female rats, Table 15b) was 0.47 *, the Lysine (f7, female rats, Table 15b) was 0.49 * and the Metanephrine (f7, female rats, Table 15b) was 0.78 *. The Normetanephrine (f7, female rats, Table 15b) was 0.61 *, the “Phosphatidylcholine (C16:0,C20:5)” value (f7, female rats, Table 15b) was 1.22 and the “Phosphatidylcholine (C16:0,C22:6)” value (f7, female rats, Table 15b) was 0.86 *. The “Phosphatidylcholine (C18:0, C20:3)” value (f7, female rats, Table 15b) was 0.69 *, the “Phosphatidylcholine (C18:0,C18:1)” value (f7, female rats, Table 15b) was 0.78 * and the Pyruvate (f7, female rats, Table 15b) was 0.52 *. For the same compound, the “Sphingomyelin (d18:1,C23:0)” value (f7, female rats, Table 15b) was 0.56 *, the “Sphingomyelin (d18:1,C24:0)” value (f7, female rats, Table 15b) was 0.67 * and the Urea (f7, female rats, Table 15b) was 0.72 *. The 3-Hydroxybutyrate (f14, female rats, Table 15a) was 2.03 *, the “DAG (C18:1,C18:2)” value (f14, female rats, Table 15a) was 3.17 * and the Glutamate (f14, female rats, Table 15a) was 1.43 *. The Glycine (f14, female rats, Table 15a) was 1.15 *, the “Phosphatidylcholine (C16:0,C20:5)” value (f14, female rats, Table 15a) was 1.15 * and the “TAG (C16:0,C16:1)” value (f14, female rats, Table 15a) was 2.59 *. For the same compound, the “TAG (C16:0,C18:1,C18:3)” value (f14, female rats, Table 15a) was 7.54 *, the “TAG (C16:0,C18:2)” value (f14, female rats, Table 15a) was 4.63 * and the “TAG (C18:1,C18:2)” value (f14, female rats, Table 15a) was 4.5 *. For the same compound, the “TAG (C18:2,C18:2)” value (f14, female rats, Table 15a) was 5.09 *, the “TAG (C18:3, C18:2, C18:1)” value (f14, female rats, Table 15a) was 5.29 * and the “TAG (DAG-Fragment)” value (f14, female rats, Table 15a) was 5.43 *. The “TAG No 059” value (f14, female rats, Table 15a) was 4.08 *, the Threonic acid (f14, female rats, Table 15a) was 2.84 * and the trans-4-Hydroxyproline (f14, female rats, Table 15a) was 1.56 *. For the same compound, the Arginine (f14, female rats, Table 15b) was 0.67 *, the Campesterol (f14, female rats, Table 15b) was 0.62 * and the “Ceramide (d18:1,C24:0)” value (f14, female rats, Table 15b) was 0.7 *. For the same compound, the Lactate (f14, female rats, Table 15b) was 0.34 *, the Lysine (f14, female rats, Table 15b) was 0.49 * and the Metanephrine (f14, female rats, Table 15b) was 0.66 *. For the same compound, the Normetanephrine (f14, female rats, Table 15b) was 0.65 *, the “Phosphatidylcholine (C16:0,C20:5)” value (f14, female rats, Table 15b) was 1.15 and the “Phosphatidylcholine (C16:0,C22:6)” value (f14, female rats, Table 15b) was 0.78 *. For the same compound, the “Phosphatidylcholine (C18:0, C20:3)” value (f14, female rats, Table 15b) was 0.76 *, the “Phosphatidylcholine (C18:0,C18:1)” value (f14, female rats, Table 15b) was 0.94 * and the Pyruvate (f14, female rats, Table 15b) was 0.35 *. The “Sphingomyelin (d18:1,C23:0)” value (f14, female rats, Table 15b) was 0.52 *, the “Sphingomyelin (d18:1,C24:0)” value (f14, female rats, Table 15b) was 0.6 * and the Urea (f14, female rats, Table 15b) was 0.63 *. For the same compound, the 3-Hydroxybutyrate (f28, female rats, Table 15a) was 1.49 *, the “DAG (C18:1,C18:2)” value (f28, female rats, Table 15a) was 2.97 * and the Glutamate (f28, female rats, Table 15a) was 1.58 *. For the same compound, the Glycine (f28, female rats, Table 15a) was 1.29 *, the “Phosphatidylcholine (C16:0,C20:5)” value (f28, female rats, Table 15a) was 1.17* and the “TAG (C16:0,C16:1)” value (f28, female rats, Table 15a) was 2.04 *. For the same compound, the “TAG (C16:0,C18:1,C18:3)” value (f28, female rats, Table 15a) was 9.21*, the “TAG (C16:0,C18:2)” value (f28, female rats, Table 15a) was 5.09 * and the “TAG (C18:1,C18:2)” value (f28, female rats, Table 15a) was 5.32 *. For the same compound, the “TAG (C18:2,C18:2)” value (f28, female rats, Table 15a) was 8.15 *, the “TAG (C18:3, C18:2, C18:1)” value (f28, female rats, Table 15a) was 7.3* and the “TAG (DAG-Fragment)” value (f28, female rats, Table 15a) was 6.9 *. The “TAG No 059” value (f28, female rats, Table 15a) was 5.2 *, the Threonic acid (f28, female rats, Table 15a) was 2.29 * and the trans-4-Hydroxyproline (f28, female rats, Table 15a) was 1.61 *. The Arginine (f28, female rats, Table 15b) was 0.59 *, the Campesterol (f28, female rats, Table 15b) was 0.66 * and the “Ceramide (d18:1,C24:0)” value (f28, female rats, Table 15b) was 0.52 *. The Lactate (f28, female rats, Table 15b) was 0.52 *, the Lysine (f28, female rats, Table 15b) was 0.52 * and the Metanephrine (f28, female rats, Table 15b) was 0.81 *. For the same compound, the Normetanephrine (f28, female rats, Table 15b) was 0.66 *, the “Phosphatidylcholine (C16:0,C20:5)” value (f28, female rats, Table 15b) was 1.17 and the “Phosphatidylcholine (C16:0,C22:6)” value (f28, female rats, Table 15b) was 0.79 *. The “Phosphatidylcholine (C18:0, C20:3)” value (f28, female rats, Table 15b) was 0.68 *, the “Phosphatidylcholine (C18:0,C18:1)” value (f28, female rats, Table 15b) was 0.81 * and the Pyruvate (f28, female rats, Table 15b) was 0.4 *. For the same compound, the “Sphingomyelin (d18:1,C23:0)” value (f28, female rats, Table 15b) was 0.42 *, the “Sphingomyelin (d18:1,C24:0)” value (f28, female rats, Table 15b) was 0.52 * and the Urea (f28, female rats, Table 15b) was 0.8*.
